Reference: US5672715A, “Herbicidal substituted 3-aryl-pyrazoles” (Monsanto Company, priority 1995, dated 1997)

Assays:
Type in all cases: in vivo
Bedstraw Catchweed [1] = assay: post-emergence herbicide test; conditions: Galium aparine, post-emergence, 0.25 lb/A; read-out: % plant inhibition
In short: (§1)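 Soil pans seeded, covered and leveled; grown in greenhouse 2–3 weeks. Sprayed individually (atomizer, 10 psig, 200 gallons/acre). Percent inhibition recorded.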

Birdseye Speedwell [2] = assay: post-emergence herbicide test; conditions: post-emergence, 0.25 lb/A; read-out: % plant inhibition
In short: as §1

Corn [3] = assay: post-emergence herbicide test; conditions: Zea mays, post-emergence, 0.25 lb/A; read-out: % plant inhibition
In short: as §1

Common Chickweed [4] = assay: post-emergence herbicide test; conditions: post-emergence, 0.25 lb/A; read-out: % plant inhibition
In short: as §1

Soybean [5] = assay: post-emergence herbicide test; conditions: Glycine max, post-emergence, 0.25 lb/A; read-out: % plant inhibition
In short: as §1

Barnyardgrass [6] = assay: post-emergence herbicide test; conditions: Echinochloa crus-galli, post-emergence, 0.25 lb/A; read-out: % plant inhibition
In short: as §1

Velvetleaf [7] = assay: post-emergence herbicide test; conditions: Abutilon theophrasti, post-emergence, 0.25 lb/A; read-out: % plant inhibition
In short: as §1

Downy Brome [8] = assay: post-emergence herbicide test; conditions: Bromus tectorum, post-emergence, 0.25 lb/A; read-out: % plant inhibition
In short: as §1

Morning Glory [9] = assay: post-emergence herbicide test; conditions: Ipomoea, post-emergence, 0.25 lb/A; read-out: % plant inhibition
In short: as §1

Blackgrass [10] = assay: post-emergence herbicide test; conditions: Alopecurus myosuroides, post-emergence, 0.25 lb/A; read-out: % plant inhibition
In short: as §1

Wheat [11] = assay: post-emergence herbicide test; conditions: Triticum aestivum, post-emergence, 0.25 lb/A; read-out: % plant inhibition
In short: as §1

Wild Oats [12] = assay: post-emergence herbicide test; conditions: Avena fatua, post-emergence, 0.25 lb/A; read-out: % plant inhibition
In short: as §1

Green Foxtail [13] = assay: post-emergence herbicide test; conditions: Setaria viridis, post-emergence, 0.25 lb/A; read-out: % plant inhibition
In short: as §1

Seedling Johnsongrass [14] = assay: post-emergence herbicide test; conditions: Sorghum halepense, post-emergence, 0.25 lb/A; read-out: % plant inhibition
In short: as §1

Giant Foxtail [15] = assay: post-emergence herbicide test; conditions: Setaria faberi, post-emergence, 0.25 lb/A; read-out: % plant inhibition
In short: as §1

Cocklebur [16] = assay: post-emergence herbicide test; conditions: Xanthium strumarium, post-emergence, 0.25 lb/A; read-out: % plant inhibition
In short: as §1

Rape [17] = assay: post-emergence herbicide test; conditions: post-emergence, 0.25 lb/A; read-out: % plant inhibition
In short: as §1

Bedstraw Catchweed [18] = assay: pre-emergence herbicide test; conditions: Galium aparine, pre-emergence, 0.25 lb/A; read-out: % plant inhibition
In short: (§2)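 Soil-applied pre-emergence screen: compound added to cover topsoil over sown seeds, pans held on greenhouse bench with subirrigation, % inhibition scored ~2 weeks later.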

Birdseye Speedwell [19] = assay: pre-emergence herbicide test; conditions: pre-emergence, 0.25 lb/A; read-out: % plant inhibition
In short: as §2

Corn [20] = assay: pre-emergence herbicide test; conditions: Zea mays, pre-emergence, 0.25 lb/A; read-out: % plant inhibition
In short: as §2

Common Chickweed [21] = assay: pre-emergence herbicide test; conditions: pre-emergence, 0.25 lb/A; read-out: % plant inhibition
In short: as §2

Soybean [22] = assay: pre-emergence herbicide test; conditions: Glycine max, pre-emergence, 0.25 lb/A; read-out: % plant inhibition
In short: as §2

Barnyardgrass [23] = assay: pre-emergence herbicide test; conditions: Echinochloa crus-galli, pre-emergence, 0.25 lb/A; read-out: % plant inhibition
In short: as §2

Velvetleaf [24] = assay: pre-emergence herbicide test; conditions: Abutilon theophrasti, pre-emergence, 0.25 lb/A; read-out: % plant inhibition
In short: as §2

Downy Brome [25] = assay: pre-emergence herbicide test; conditions: Bromus tectorum, pre-emergence, 0.25 lb/A; read-out: % plant inhibition
In short: as §2

Morning Glory [26] = assay: pre-emergence herbicide test; conditions: Ipomoea, pre-emergence, 0.25 lb/A; read-out: % plant inhibition
In short: as §2

Blackgrass [27] = assay: pre-emergence herbicide test; conditions: Alopecurus myosuroides, pre-emergence, 0.25 lb/A; read-out: % plant inhibition
In short: as §2

Wheat [28] = assay: pre-emergence herbicide test; conditions: Triticum aestivum, pre-emergence, 0.25 lb/A; read-out: % plant inhibition
In short: as §2

Wild Oats [29] = assay: pre-emergence herbicide test; conditions: Avena fatua, pre-emergence, 0.25 lb/A; read-out: % plant inhibition
In short: as §2

Green Foxtail [30] = assay: pre-emergence herbicide test; conditions: Setaria viridis, pre-emergence; 0.25 lb/A; read-out: % plant inhibition
In short: as §2

Seedling Johnsongrass [31] = assay: pre-emergence herbicide test; conditions: Sorghum halepense, pre-emergence, 0.25 lb/A; read-out: % plant inhibition
In short: as §2

Giant Foxtail [32] = assay: pre-emergence herbicide test; conditions: Setaria faberi, pre-emergence, 0.25 lb/A; read-out: % plant inhibition
In short: as §2

Cocklebur [33] = assay: pre-emergence herbicide test; conditions: Xanthium strumarium, pre-emergence, 0.25 lb/A; read-out: % plant inhibition
In short: as §2

Rape [34] = assay: pre-emergence herbicide test; conditions: pre-emergence, 0.25 lb/A; read-out: % plant inhibition
In short: as §2

## CCC(C)OC(=O)c1cc(-c2nn(C)c(C(F)(F)F)c2C)c(F)cc1Cl (stereo not shown) [Compound 58]
Bedstraw Catchweed [1]
  inhibition at 280.212 g/ha: 90%
Birdseye Speedwell [2]
  inhibition at 280.212 g/ha: 100%
Corn [3]
  inhibition at 280.212 g/ha: 20%
Common Chickweed [4]
  inhibition at 280.212 g/ha: 95%
Soybean [5]
  inhibition at 280.212 g/ha: 85%
Barnyardgrass [6]
  inhibition at 280.212 g/ha: 85%
Velvetleaf [7]
  inhibition at 280.212 g/ha: 100%
Downy Brome [8]
  inhibition at 280.212 g/ha: 85%
Morning Glory [9]
  inhibition at 280.212 g/ha: 100%
Blackgrass [10]
  inhibition at 280.212 g/ha: 80%
Wheat [11]
  inhibition at 280.212 g/ha: 18%
Wild Oats [12]
  inhibition at 280.212 g/ha: 85%
Green Foxtail [13]
  inhibition at 280.212 g/ha: 85%
Seedling Johnsongrass [14]
  inhibition at 280.212 g/ha: 95%
Giant Foxtail [15]
  inhibition at 280.212 g/ha: 95%
Cocklebur [16]
  inhibition at 280.212 g/ha: 99%
Rape [17]
  inhibition at 280.212 g/ha: 65%
Bedstraw Catchweed [18]
  inhibition at 280.212 g/ha: 95%
Birdseye Speedwell [19]
  inhibition at 280.212 g/ha: 100%
Corn [20]
  inhibition at 280.212 g/ha: 20%
Common Chickweed [21]
  inhibition at 280.212 g/ha: 100%
Soybean [22]
  inhibition at 280.212 g/ha: 25%
Barnyardgrass [23]
  inhibition at 280.212 g/ha: 100%
Velvetleaf [24]
  inhibition at 280.212 g/ha: 100%
Downy Brome [25]
  inhibition at 280.212 g/ha: 100%
Morning Glory [26]
  inhibition at 280.212 g/ha: 100%
Blackgrass [27]
  inhibition at 280.212 g/ha: 95%
Wheat [28]
  inhibition at 280.212 g/ha: 5%
Wild Oats [29]
  inhibition at 280.212 g/ha: 75%
Green Foxtail [30]
  inhibition at 280.212 g/ha: 100%
Seedling Johnsongrass [31]
  inhibition at 280.212 g/ha: 100%
Giant Foxtail [32]
  inhibition at 280.212 g/ha: 100%
Cocklebur [33]
  inhibition at 280.212 g/ha: 75%
Rape [34]
  inhibition at 280.212 g/ha: 50%
